Measurements published in article PMC6812009, “Covalent Aurora A regulation by the metabolic integrator coenzyme A” (Redox Biology, 2019).

Key:
mouse oocytes = test: Microinjection of mouse oocytes, spindle formation and chromosome alignment; assay type: cell-based; conditions: injected with 3 mM compound, 17 h after GV release
Method: Mouse oocytes arrested at the GV stage were injected with different concentrations of CoA (0.15–5 mM). Since the commercial preparation of CoA used for microinjection contained 3 mol of lithium ions per mole of CoA, control oocytes were injected with an equivalent amount of LiCl. In a separate study, oocytes were injected with 3 mM CoA, ADP, AMP, 3′-5′-ADP and pantetheine. To examine the effect of injected compounds on spindle formation, oocytes were fixed 17 h after GV release and stained for alpha-tubulin (green) and DNA (blue).

[1] = biological target: T1, Aurora A (active), T288 phosphorylated (Homo sapiens, UniProt O14965); test: Lanthascreen Eu Kinase FRET binding assay; conditions: T288 phosphorylated Aurora A; read-out: Aurora A (active) IC50 (μM), binding assay
T1 construct: For enzyme and DSF assays, full-length human Aurora A and Aurora B and 1–43 TPX2 were produced; made in house; host or cells: E. coli
T1 sequence (O14965 1-403): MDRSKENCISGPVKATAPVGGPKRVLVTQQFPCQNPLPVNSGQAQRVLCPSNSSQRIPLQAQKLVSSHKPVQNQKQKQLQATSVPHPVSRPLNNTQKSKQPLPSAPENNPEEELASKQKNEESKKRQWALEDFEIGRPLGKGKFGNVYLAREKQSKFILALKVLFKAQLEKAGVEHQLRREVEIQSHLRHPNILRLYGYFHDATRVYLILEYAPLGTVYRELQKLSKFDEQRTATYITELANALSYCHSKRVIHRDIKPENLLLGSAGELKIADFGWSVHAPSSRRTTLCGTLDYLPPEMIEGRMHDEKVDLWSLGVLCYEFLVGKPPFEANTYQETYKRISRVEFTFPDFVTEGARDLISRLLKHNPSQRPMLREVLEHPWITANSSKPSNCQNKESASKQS
Method: (§1) A Lanthascreen Eu Kinase FRET Binding Assay (Invitrogen) was employed to determine IC50 values for the interaction of Aurora A with CoA, dpCoA, ATP, and ADP. […] Recombinant Aurora A was incubated with Europium-conjugated anti-histidine tag antibody and an Alexa Fluor 647-labelled tracer, which binds to the ATP binding pocket of Aurora A. The close proximity of the anti-histidine (epitope-tag) antibody and the tracer results in a high degree of FRET (fluorescence resonance energy transfer) from the europium donor fluorophore to the Alexa Fluor 647 acceptor fluorophore. ATP-competitive inhibitors, such as CoA, displace the tracer from the active site, causing a loss of FRET signal. Assay set-up was performed as described by the manufacturer. Briefly, the time-resolved fluorescence resonance energy transfer assay (TR-FRET) was performed in black, low volume 384 well plates (Corning). Each well contained 5 nM kinase, 2 nM Eu-anti-His antibody and 10 nM kinase tracer 236 in kinase buffer A (50 mM Hepes pH 7.5, 10 mM MgCl2, 1 mM […], 0.01% (v/v) Brij-35), varying amounts of CoA, dpCoA, ATP, and ADP. The reaction mix was incubated for 1h at room temperature. The signal was measured at 665/620 nm emission ratio using BMG LABTECH plate reader (PHERAstar). All assays were performed using duplicates. The 11-point response curves were generated using GraphPad Prism software from the inhibition data generated.

[2] = biological target: T2, Aurora A (inactive), unphosphorylated (PP1-treated) (Homo sapiens, UniProt O14965); test: Lanthascreen Eu Kinase FRET binding assay
T2 construct: For enzyme and DSF assays, full-length human Aurora A and Aurora B and 1–43 TPX2 were produced; made in house; host or cells: E. coli
T2 sequence (O14965 1-403): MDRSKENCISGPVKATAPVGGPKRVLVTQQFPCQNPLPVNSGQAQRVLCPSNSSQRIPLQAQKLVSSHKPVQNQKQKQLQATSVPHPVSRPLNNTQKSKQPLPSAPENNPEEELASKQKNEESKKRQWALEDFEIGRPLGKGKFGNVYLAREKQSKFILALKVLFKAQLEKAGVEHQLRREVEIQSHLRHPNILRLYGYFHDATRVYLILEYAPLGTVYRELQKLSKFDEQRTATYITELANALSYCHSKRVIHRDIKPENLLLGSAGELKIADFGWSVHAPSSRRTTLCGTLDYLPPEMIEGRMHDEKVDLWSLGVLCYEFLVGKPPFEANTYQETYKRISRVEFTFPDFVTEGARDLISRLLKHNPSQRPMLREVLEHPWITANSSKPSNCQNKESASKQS
Method: as §1

T217E Aurora A = biological target: T3, T217E Aurora A (Homo sapiens, UniProt O14965, T217E); test: Thermal shift assay (differential scanning fluorimetry); assay type: binding; conditions: 5 mM ATP, 5 mM CoA or 0.1 mM MLN8237
T3 construct: For enzyme and DSF assays, full-length human Aurora A and Aurora B and 1–43 TPX2 were produced; made in house; host or cells: E. coli
T3 sequence (O14965 1-403 T217E): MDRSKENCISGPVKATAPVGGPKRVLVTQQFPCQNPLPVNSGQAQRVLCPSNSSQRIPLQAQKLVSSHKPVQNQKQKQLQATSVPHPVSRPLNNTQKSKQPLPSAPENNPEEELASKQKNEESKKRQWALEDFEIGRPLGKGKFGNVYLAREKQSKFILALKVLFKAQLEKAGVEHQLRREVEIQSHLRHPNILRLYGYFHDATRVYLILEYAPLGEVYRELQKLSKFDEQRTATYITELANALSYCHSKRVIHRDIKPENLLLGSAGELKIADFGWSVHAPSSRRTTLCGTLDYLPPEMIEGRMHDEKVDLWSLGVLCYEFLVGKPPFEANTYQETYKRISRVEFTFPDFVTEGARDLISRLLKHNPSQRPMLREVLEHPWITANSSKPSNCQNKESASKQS
Method: (§2) Asp274Asn and Thr217Glu Aurora A mutants were generated by PCR-site directed mutagenesis, expressed and purified as described previously. Cys290Ala Aurora A was generated using standard procedures, and purified as described.
(§3) Thermal-shift assays were performed with a StepOnePlus Real-Time PCR machine (Life Technologies) using Sypro-Orange dye (Invitrogen) and thermal ramping (0.3 °C in step intervals between 25 and 94 °C). All proteins were diluted to a final concentration of 5 μM in 50 mM Tris/HCl, pH 7.4 and 100 mM NaCl in the presence or absence of the indicated concentrations of ligand (final DMSO concentration no higher than 4 % v/v). CoA, dephosphoCoA or kinase inhibitors diluted from 10 mM DMSO stocks were assayed as described previously. Normalized data were processed using the Boltzmann equation to generate sigmoidal denaturation curves, and average Tm/ΔTm values calculated as previously described using GraphPad Prism software.

[3] = biological target: T4, kinase-dead D274N (inactive) Aurora A (Homo sapiens, UniProt O14965, D274N); test: as above; assay type: binding; conditions: 5 mM ATP or 5 mM CoA; CoA DTT-dependent
T4 construct: For enzyme and DSF assays, full-length human Aurora A and Aurora B and 1–43 TPX2 were produced; 6His (N); made in house; host or cells: E. coli
T4 sequence (O14965 whole entry D274N): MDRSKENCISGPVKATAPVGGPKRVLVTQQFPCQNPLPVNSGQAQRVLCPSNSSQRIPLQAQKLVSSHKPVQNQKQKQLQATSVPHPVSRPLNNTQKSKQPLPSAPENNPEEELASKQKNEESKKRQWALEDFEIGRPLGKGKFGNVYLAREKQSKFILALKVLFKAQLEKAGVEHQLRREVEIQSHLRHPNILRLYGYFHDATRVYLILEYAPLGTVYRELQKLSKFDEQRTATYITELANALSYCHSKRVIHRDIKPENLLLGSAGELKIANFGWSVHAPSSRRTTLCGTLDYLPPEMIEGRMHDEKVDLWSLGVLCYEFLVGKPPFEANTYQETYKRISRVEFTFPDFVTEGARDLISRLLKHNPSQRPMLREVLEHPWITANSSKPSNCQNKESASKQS
Method: as §2, §3

C290A Aurora A = biological target: T5, C290A Aurora A (Homo sapiens, UniProt O14965, C290A); test: as above; assay type: binding; conditions: 5 mM ATP or 5 mM CoA
T5 construct: For enzyme and DSF assays, full-length human Aurora A and Aurora B and 1–43 TPX2 were produced; made in house; host or cells: E. coli BL21 (DE3) pLysS
T5 sequence (O14965 whole entry C290A): as the sequence (O14965 whole entry D274N) above, with N274D, C290A counted along it
Method: as §2, §3

[4] = biological target: T6, WT Aurora A (T288 phosphorylated, active) (Homo sapiens, UniProt O14965); test: as above; assay type: binding; conditions: 5 mM ATP, 5 mM CoA or 0.1 mM MLN8237; for CoA dependent on non-reducing conditions
T6 construct: Bacterially expressed full-length His-Aurora A was used to determine the IC50 value for CoA; made in house; host or cells: E. coli BL21 (DE3) pLysS
T6 sequence (O14965 1-403): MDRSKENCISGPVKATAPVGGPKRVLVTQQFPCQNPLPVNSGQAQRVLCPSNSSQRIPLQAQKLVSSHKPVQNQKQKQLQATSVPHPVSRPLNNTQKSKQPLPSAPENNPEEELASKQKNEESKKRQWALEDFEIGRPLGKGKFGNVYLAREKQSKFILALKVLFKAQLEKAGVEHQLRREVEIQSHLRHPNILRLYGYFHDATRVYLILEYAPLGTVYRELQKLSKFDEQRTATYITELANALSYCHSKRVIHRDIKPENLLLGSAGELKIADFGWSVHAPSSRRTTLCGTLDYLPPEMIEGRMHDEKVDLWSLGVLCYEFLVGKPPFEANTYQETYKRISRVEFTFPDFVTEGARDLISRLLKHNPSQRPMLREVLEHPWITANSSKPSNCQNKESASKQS
Method: as §2, §3

Aurora A (active) = biological target: T7, Aurora A (active) (Homo sapiens, UniProt O14965); test: In vitro Aurora A kinase assay (γ33P-ATP incorporation into myelin basic protein); assay type: biochemical; conditions: 5 μM ATP, absence of DTT; read-out: IC50, Aurora A kinase activity
T7 construct: Bacterially expressed full-length His-Aurora A was used to determine the IC50 value for CoA; made in house; host or cells: E. coli BL21 (DE3) pLysS
T7 sequence (O14965 1-403): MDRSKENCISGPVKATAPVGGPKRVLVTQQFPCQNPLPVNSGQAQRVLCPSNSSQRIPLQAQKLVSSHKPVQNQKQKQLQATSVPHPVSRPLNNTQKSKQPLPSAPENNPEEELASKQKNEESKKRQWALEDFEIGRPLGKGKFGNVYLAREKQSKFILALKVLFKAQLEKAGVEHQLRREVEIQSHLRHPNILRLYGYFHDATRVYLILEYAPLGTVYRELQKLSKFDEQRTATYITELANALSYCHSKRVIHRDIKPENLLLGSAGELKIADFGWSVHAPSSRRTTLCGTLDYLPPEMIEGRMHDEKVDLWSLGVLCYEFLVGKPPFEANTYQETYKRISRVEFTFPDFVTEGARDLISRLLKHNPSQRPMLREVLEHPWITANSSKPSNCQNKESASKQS
Method: Profiling of 117 protein kinases with CoA, dpCoA and ADP was carried out at the International Centre for Protein Kinase Profiling at the University of Dundee. Each compound was tested in vitro, in duplicate, at 100 μM final concentration using recombinant kinases, model substrates and optimal concentrations of ATP. Bacterially expressed full-length His-Aurora A was used to determine the IC50 value for CoA (in the presence or absence of DTT), dpCoA, ADP and desulfo-CoA. The assay was performed in the presence of 5 μM competing ATP. To examine whether the inhibitory effect of CoA on Aurora A is modulated by TPX2, IC50 values for CoA were also generated in the presence and absence of 1 μg TPX2 (residues 1–43) fragment.
Aurora A kinase activity was assayed by measuring incorporation of γ^33P-ATP into myelin basic protein (Sigma). Purified recombinant protein (100 ng) was incubated at room temperature for 30 min in a total volume of 15 μl containing 50 mM HEPES pH 7.5, 10 mM MgCl2, 1 mM EGTA, 0.05% Brij-35, 0.5 mg/ml myelin basic protein, and 5 μM γ^33P-ATP (100–10,000 dpm/pmol). The reaction was stopped by spotting the reaction mixture onto squares of P81 phosphocellulose ion exchange paper (Whatmann), which were then immersed in 1.5% (v/v) phosphoric acid. After washing twice in 1% phosphoric acid followed by two washes in distilled water, the papers were air dried and radioactivity was counted by a scintillation counter and recorded by Quantasmart version 2.03.

[5] = tested on: FLAG-tagged Aurora A in HEK293/Pank1β cells; test: Aurora A Thr 288 phosphorylation and dimerization in cells treated with oxidising agents (immunoblot); assay type: cell-based, human; conditions: 30 min treatment
[6] = tested on: FLAG-tagged Aurora A in HEK293/Pank1β cells; test: Aurora A CoAlation in cells treated with oxidising agents (FLAG immunoprecipitation, anti-CoA immunoblot); assay type: cell-based, human; conditions: 30 min; 250 μM H2O2, 500 μM diamide, 50 μM menadione, 10 μM phenylarsine oxide

Nc1ncnc2c1ncn2[C@@H]1O[C@H](COP(=O)(O)O)[C@@H](O)[C@H]1O [AMP]
Disruption of bipolar spindle formation and chromosome alignment (mouse oocytes): not

Nc1ncnc2c1ncn2[C@@H]1O[C@H](COP(=O)(O)OP(=O)(O)OP(=O)(O)O)[C@@H](O)[C@H]1O [ATP]
IC50 [1]: 0.2 µM
IC50 [2]: 3 µM
Ligand-induced thermal shift (T217E Aurora A): stabilization
Ligand interaction by thermal shift [3]: severely blunted
Ligand binding / thermal stabilization (C290A Aurora A): still bound
Change in thermal stability (ΔTm) [4]: marked change in thermal stability

COc1cc(Nc2ncc3c(n2)-c2ccc(Cl)cc2C(c2c(F)cccc2OC)=NC3)ccc1C(=O)O [MLN8237, alisertib]
Ligand-induced thermal shift (T217E Aurora A): stabilization
Change in thermal stability (ΔTm) [4]: marked change in thermal stability

CCNC(=O)CCNC(=O)[C@H](O)C(C)(C)COP(=O)(O)OP(=O)(O)OC[C@H]1O[C@@H](n2cnc3c(N)ncnc32)[C@H](O)[C@@H]1OP(=O)(O)O [desulfo-CoA]
IC50 (Aurora A (active)): 160000 nM

CN(C)C(=O)/N=N/C(=O)N(C)C [diamide]
Formation of Aurora A dimers in cells ([5]; non-reducing conditions): clearly observed
Aurora A phosphorylation at Thr 288 in cells ([5]; samples separated in the presence of DTT): promoted an increase
CoAlation of transiently expressed Aurora A in cells [6]: strongly induced
